Experimental data as given in the supplement of paper PMC10307832.

How the values were obtained:
Test in all cases: relative viability (nuclei count vs DMSO), 5 days (fraction); higher = more cells survive
[1] = compound: C1=CC(=CC=C1NC(=S)NNC2=C(C=C(C=C2[N+](=O)[O-])C(F)(F)F)[N+](=O)[O-])F [Kobe2602] + CC(=O)Nc1cccc(-n2c(=O)n(C3CC3)c(=O)c3c(Nc4ccc(I)cc4F)n(C)c(=O)c(C)c32)c1 [Trametinib] (partner 0.02 µM)
How it was run: (§1)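 Relative viability was taken as the ratio of nuclei in treated wells to nuclei in vehicle wells. Lung cancer cell lines in 1536-well plates received compounds by pin tool one day after seeding, either one drug alone or a fixed anchor-drug dose plus five library-drug doses (not always all listed) in √10 steps. Nuclei were counted on 4× images after 5 days of treatment, and values are medians of duplicate plates.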

[2] = compound: O[C@@H](COc1cccc2ncccc12)CN1CCN([C@@H]2c3ccccc3[C@@H]3[C@H](c4ccccc42)C3(F)F)CC1 [Zosuquidar] + CC1(C)CCC(c2ccc(Cl)cc2)=C(CN2CCN(c3ccc(C(=O)NS(=O)(=O)c4ccc(N[C@H](CCN5CCOCC5)CSc5ccccc5)c(S(=O)(=O)C(F)(F)F)c4)cc3)CC2)C1 [Navitoclax] (partner 0.5 µM)
How it was run: as §1

[3] = compound: O[C@@H](COc1cccc2ncccc12)CN1CCN([C@@H]2c3ccccc3[C@@H]3[C@H](c4ccccc42)C3(F)F)CC1 [Zosuquidar] + N=C(N)NC(=N)NCCc1ccccc1 [Phenformin] (partner 250 µM)
How it was run: as §1

[4] = compound: O[C@@H](COc1cccc2ncccc12)CN1CCN([C@@H]2c3ccccc3[C@@H]3[C@H](c4ccccc42)C3(F)F)CC1 [Zosuquidar] + O=C(c1cc(Cc2n[nH]c(=O)c3ccccc23)ccc1F)N1CCN(C(=O)C2CC2)CC1 [Olaparib] (partner 8 µM)
How it was run: as §1

| Cell Line | relative viability ([1]; first compound 0.2 µM) | relative viability ([1]; first compound 0.6325 µM) | relative viability ([1]; first compound 2 µM) | relative viability ([1]; first compound 6.325 µM) | relative viability ([1]; first compound 20 µM) | relative viability ([2]; first compound 0.01 µM) | relative viability ([2]; first compound 0.03162 µM) | relative viability ([2]; first compound 0.1 µM) | relative viability ([2]; first compound 0.3162 µM) | relative viability ([2]; first compound 1 µM) | relative viability ([3]; first compound 0.01 µM) | relative viability ([3]; first compound 0.03162 µM) | relative viability ([3]; first compound 0.1 µM) | relative viability ([3]; first compound 0.3162 µM) | relative viability ([3]; first compound 1 µM) | relative viability ([4]; first compound 0.01 µM) | relative viability ([4]; first compound 0.03162 µM) | relative viability ([4]; first compound 0.1 µM) | relative viability ([4]; first compound 0.3162 µM) | relative viability ([4]; first compound 1 µM) |
| --- | --- | --- | --- | --- | --- | --- | --- | --- | --- | --- | --- | --- | --- | --- | --- | --- | --- | --- | --- | --- |
| HCC-15 | 0.34 | 0.397 | 0.362 | 0.386 | 0.387 | 0.723 | 0.702 | 0.683 | 0.665 | 0.667 | 0.44 | 0.441 | 0.436 | 0.497 | 0.504 | 0.717 | 0.725 | 0.799 | 0.72 | 0.747 |
| HCC-44 | 1.04 | 1.16 | 1.02 | 0.939 | 0.967 | 0.959 | 1.02 | 1.04 | 1.02 | 1.17 | 0.259 | 0.191 | 0.161 | 0.336 | 0.209 | 1.01 | 1.02 | 1.02 | 0.961 | 0.934 |
| HCC-78 | 0.708 | 0.891 | 0.633 | 0.768 | 0.8 | 1.04 | 0.768 | – | 0.839 | 0.736 | 0.801 | 0.71 | – | 0.707 | 0.558 | 0.939 | – | – | 0.862 | 0.846 |
| HCC-366 | 0.284 | 0.386 | 0.31 | 0.297 | 0.302 | 0.97 | 1.18 | 1.02 | 1.01 | 1.09 | 0.61 | 0.674 | 0.623 | 0.718 | 0.575 | 0.314 | 0.377 | 0.415 | 0.324 | 0.324 |
| HCC-827 | 0.546 | 0.546 | 0.571 | 0.537 | 0.558 | 1.04 | 0.991 | 0.991 | 1.02 | 1.03 | 0.351 | 0.467 | 0.333 | 0.413 | 0.398 | 0.688 | 0.567 | 0.518 | 0.65 | 0.622 |
| HOP-62 | 0.446 | 0.39 | 0.355 | 0.415 | 0.415 | 0.825 | 1.13 | 0.939 | 0.924 | 0.975 | 0.7 | 0.637 | 0.688 | 0.719 | 0.684 | 0.461 | 0.548 | 0.485 | 0.665 | 0.384 |
| LC-2-ad | 0.931 | 0.895 | 0.849 | 0.936 | 0.89 | 0.452 | 0.607 | 0.407 | 0.534 | 0.406 | 0.584 | 0.561 | 0.576 | 0.626 | 0.55 | 0.689 | 0.67 | 0.693 | 0.716 | 0.719 |
| LCLC-97TM1 | 0.184 | 0.186 | – | 0.207 | 0.257 | 0.448 | 0.396 | – | 0.496 | 0.412 | 0.409 | 0.442 | 0.46 | 0.454 | 0.445 | 0.307 | 0.453 | – | 0.335 | 0.515 |
